Source: US6846845B2, “Heat shock protein inducer” (Eisai Co., Ltd., priority 2002, dated 2005)

Assays:
Type in all cases: in vivo, rat
HSP70 = assay: Effect of chelerythrine pretreatment on GGA-induced HSP70 expression in the heart (Western immunoblotting), Example 2; details: 24 h after GGA 200 mg/kg oral or vehicle; chelerythrine 5 mg/kg i.v. pretreatment, FIG. 8
Experimental: (§1) Male Sprague-Dawley rats (220-250 g) were used. GGA, as an emulsion with 5% gum arabic and 0.008% tocopherol, was given orally at a dose of 200 mg/kg. Rats were classified into 4 groups. FIG. 7 is a diagrammatic representation of experimental protocol. […] Twenty-four hours after oral administration of GGA or vehicle, rats were anesthetized (sodium pentobarbital, 50 mg/kg IP) and heparinized (500 IU/kg IP). Hearts were excised, immediately frozen in liquid nitrogen, and stored at −70° C. until use for Western blot analysis (n=4 for each group). […]
(§2) To analyze the expression of HSP70, the frozen heart samples were homogenized with SDS sample buffer (pH 6.8, 20% glycerol, 6% SDS, 0.12M Tris), centrifuged and boiled (Maloyan A, Palmon A, Horowitz M. Heat acclimation increases the basal HSP70 level and alters its production dynamics during heat stress. Am J Physiol. 1999; 276:R1506-R1515.). […] The total protein concentration of heart was quantified by the Bradford method (Bradford MM. A rapid and sensitive method for quantitation of microgram quantities of protein utilizing the principle of protein-dye binding. Anal. Biochem. 1976;72:248-254). […] The proteins were detected by ECL with exposure to Hyperfilm (Amersham Pharmacia). The amount of protein on the immunoblots was quantified using National Institutes of Health image software. […]

[1] = test system: heat shock factor 1 (HSF1); assay: HSF1 phosphorylation and translocation in cytosolic and nuclear heart fractions (Western immunoblotting); details: 24 h after GGA 200 mg/kg oral or vehicle; chelerythrine 5 mg/kg i.v. pretreatment, FIG. 9
Experimental: as §1, §2

PKCδ = assay: Translocation of PKCδ in particulate and cytosolic heart fractions (Western immunoblotting); details: 24 h after GGA 200 mg/kg oral or vehicle; chelerythrine 5 mg/kg i.v. pretreatment, FIG. 10
PKC (α, β, γ and ε) = assay: Translocation of PKC isoforms α, β, γ and ε in particulate and cytosolic heart fractions (Western immunoblotting); details: 24 h after GGA 200 mg/kg oral or vehicle; chelerythrine 5 mg/kg i.v. pretreatment, FIG. 10
isolated perfused heart = assay: Isolated perfused heart experiments (Langendorff, 20 min no-flow global ischemia, 30 min reperfusion), Example 2
Experimental: Male Sprague-Dawley rats (220-250 g) were used. GGA, as an emulsion with 5% gum arabic and 0.008% tocopherol, was given orally at a dose of 200 mg/kg. Rats were classified into 4 groups. FIG. 7 is a diagrammatic representation of experimental protocol. […] Twenty-four hours after oral administration of GGA or vehicle, rats were anesthetized (sodium pentobarbital, 50 mg/kg IP) and heparinized (500 IU/kg IP). Hearts were excised, immediately frozen in liquid nitrogen, and stored at −70° C. until use for Western blot analysis (n=4 for each group). To examine the cardiac function during ischemia and reperfusion, hearts of each group were prepared for isolated perfused experiments using Langendorff apparatus (n=7-9 for each group, FIG. 7).
Twenty-four hours after administration-of 200 mg/kg of GGA or vehicle, rats of 4 groups were heparinized (500 IU/kg, IP) and anesthetized with sodium pentobarbital (50 mg/kg, IP). Each heart was isolated and perfused retrogradely using the Langendorff method with Krebs-Henseleit buffer (pH 7.4, [in mM] 118 NaCl, 4.7 KCl, 2.5 CaCl2, 1.2 MgSO4, 1.2 KH2PO4, 25.0 Na2HCO3, 11.0 glucose) equilibrated with 95% O2-5% CO2 gas mixture at 36.5° C. at a constant pressure of 75 mm Hg. A water-filled latex balloon was inserted through the mitral orifice into the left ventricle (LV) and the LV end-diastolic pressure (LVEDP) was adjusted to 0-5 mm Hg. During the initial 10 min of constant pressure perfusion, the perfusion flow rate was determined for each heart, which was then perfused at a determined perfusion rate using a microtube pump while the heart was covered with water-jacketed glassware and the relative humidity maintained at 90% or more. Normothermic no-flow global ischemia was initiated for 20 min, followed by reperfusion for 30 min. The coronary effluent during the 30 min of reperfusion period was collected for measurement of creatine kinase content (released CK).
LV pressure was monitored using a pressure transducer to obtain the peak positive and negative first derivatives of LV pressure (dP/dtmax and dP/dtmin). […] Coronary perfusion pressure (CPP) was defined as the hydraulic pressure measured at the level of aortic cannulation. LV pressure, CPP and electrocardiogram were continuously recorded on a polygraph recorder (WS-681G, Nihon Kohden) and stored on a PCM data recorder (RD-111T, TEAC) for later analysis.
Data are expressed as mean ±SEM. Serial changes in LVDP, LVEDP, CPP, and dP/dt were analyzed by two-way analysis of variance (ANOVA) followed by the Bonferroni/Dunn test, unless otherwise specified. Comparisons among groups with respect to the hemodynamic parameters at baseline and the ratio of released CK to ventricular weight were analyzed by one-way ANOVA followed by the Bonferroni/Dunn test. […]

COc1ccc2c(c[n+](C)c3c4cc5c(cc4ccc23)OCO5)c1OC [chelerythrine, reference compound]
HSP70 expression in the heart (relative density to control group) (HSP70): did not influence | amount of phosphorylated form of HSF1 in the nuclear fraction [1]: did not significantly influence | PKCδ in the particulate fraction / particulate/cytosol ratio versus CNT group (PKCδ): did not influence | PKC isoforms α, β, γ and ε in cytosolic and particulate fractions (PKC (α, β, γ and ε)): not influenced | released creatine kinase (CK) relative to ventricular weight (isolated perfused heart; 30-min reperfusion period after 20 min ischemia, FIG. 12): similar | recovery of LVDP, LVEDP and dP/dt on reperfusion versus CNT group (isolated perfused heart; 20 min no-flow global ischemia, 30 min reperfusion, FIG. 11): similar
